The text below walks through data of patent US6521635B1, “Inhibition of MXR transport by acridine derivatives” (priority 2000, dated 2003).

The series has as its target T1, MXR (S1-M1-80 cells) (Homo sapiens, UniProt Q9UNQ0, R482G).
T1 construct: express high levels of a mitoxantrone transporter (Miyake et al. (1999) Cancer Res.59: 8-13); endogenous in cells; host or cells: S1-M1-80 (mitoxantrone-selected subline of S1 colon carcinoma cells)
T1 sequence (Q9UNQ0 1-655 R482G): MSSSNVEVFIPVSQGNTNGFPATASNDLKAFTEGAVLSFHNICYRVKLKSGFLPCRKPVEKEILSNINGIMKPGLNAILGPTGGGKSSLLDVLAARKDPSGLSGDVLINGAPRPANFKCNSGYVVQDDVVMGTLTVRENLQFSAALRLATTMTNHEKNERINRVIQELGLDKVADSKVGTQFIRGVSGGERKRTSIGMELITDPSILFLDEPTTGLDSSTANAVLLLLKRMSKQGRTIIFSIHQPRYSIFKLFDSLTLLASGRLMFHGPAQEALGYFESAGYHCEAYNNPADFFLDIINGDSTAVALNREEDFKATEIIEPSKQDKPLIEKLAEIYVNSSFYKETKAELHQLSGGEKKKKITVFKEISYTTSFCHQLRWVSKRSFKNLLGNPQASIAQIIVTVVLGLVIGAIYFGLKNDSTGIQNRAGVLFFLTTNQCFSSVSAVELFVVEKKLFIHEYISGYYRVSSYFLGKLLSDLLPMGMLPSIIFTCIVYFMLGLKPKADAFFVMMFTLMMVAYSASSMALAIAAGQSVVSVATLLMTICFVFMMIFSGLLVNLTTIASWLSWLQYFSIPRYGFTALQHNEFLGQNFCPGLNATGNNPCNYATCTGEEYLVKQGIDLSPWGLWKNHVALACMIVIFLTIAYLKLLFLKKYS
Nature of the series: Rhodamine efflux assay (flow cytometry). It is filed as cell-based. To be noted: S1-M1-80 cells. Here is the method:
To provide confirmation, rhodamine efflux assays were performed. […] The results are depicted in FIG. 2.
A general note: In flow cytometry, cells or beads pass a laser one at a time.

Structures are written as SMILES.

Regarding `COc1cc2c(cc1OC)CN(CCc1ccc(NC(=O)c3cccc4c(=O)c5cccc(OC)c5[nH]c34)cc1)CC2` [GF120918], the “concentration at which an effect on rhodamine efflux was observed” value came out at 1000 nM.
